For this test, the system named is human platelets. The test can be described thus: suppressive activity on ADP aggregation of human platelets. Type of test: cell-based. The conditions noted are these: platelet rich plasma, ADP 1-5 μM, compound added 2 minutes before ADP, read-out: Suppression of platelet aggregation (IC50). How it is done: Determination of suppressive activity on ADP aggregation of human platelets
Platelet rich plasma was prepared from the blood taken from healthy humans by centrifugation in the presence of 0.38% sodium citrate, and used for the determination.
Two minutes after the test compounds shown in Table 1 were added to the above-mentioned platelet rich plasma, ADP (adenosine-5'-diphosphate) (1-5 μM) having a concentration at which primary aggregation alone is observed was added, and the suppression of ADP aggregation by the compounds was evaluated. The percent suppression was determined by varying the concentration of the compounds and the concentration of the compound at which the aggregation was suppressed by 50% (IC50) was calculated, which was taken as the activity of the compound.
By IC50 is commonly meant the point on the concentration scale where inhibition reaches its midpoint. In the case of `N=C(N)c1cnc2oc(C(=O)Nc3ccc(OCC(=O)O)cc3)cc2c1` [Compound 239, 4-(5-Amidinofuro[2,3-b]pyridine-2-carbonylamino)-phenoxyacetic acid], the IC50 is 10 nM.

For `N=C(N)c1cnc2oc(C(=O)Nc3ccc(OCC(=O)O)nc3)cc2c1` [Compound 246, 5-(5-Amidinofuro[2,3-b]pyridine-2-carbonylamino)-2-pyridyloxyacetic acid], the IC50 worked out at 30 nM.

For the molecule `N=C(N)c1cnc2oc(C(=O)N[C@H]3CC[C@H](OCC(=O)O)CC3)cc2c1` [Compound 255, trans-[4-(5-Amidinofuro[2,3-b]pyridine-2-carbonylamino)-cyclohexyloxy]acetic acid], the half-maximal inhibitory concentration (IC50) amounted to 20 nM.

Consider `N=C(N)c1cnc2oc(C(=O)N[C@H]3CC[C@H](CCC(=O)O)CC3)cc2c1` [Compound 261, trans-3-[4-(5-Amidinofuro[2,3-b]pyridine-2-carbonylamino)cyclohexyl]propionic acid], for which the IC50 was determined as 10 nM.
